Assay results published in patent US10344330B2, “Glatiramer acetate response biomarker mRNA potency assay” (Mylan Inc., priority 2013, dated 2019).
Values joined by “and” are separate entries in the source; they are usually repeats but may differ in a detail not shown here. Equal entries are not always repeated.

Assays:
mIL-2 mRNA in LN cells = mIL-2 mRNA in LN cells of Copaxone P53974-immunized CSJLF1/JRj mice, three identical experiments, GAPDH and β-actin reference (Example VII); assay type: cell-based, mouse; conditions: 2.5 μg/mL, 6 hours
Procedure: (§1) A real-time polymerase chain reaction method was used to measure the expression of IL-2, IL-4, IL-5, and IL-13 mRNA in GA-stimulated LN cells from GA-immunized mice. Three identical experiments were carried out. In each experiment, mice were immunized with GA, and LN cells from each group of mice were stimulated with each of six concentrations of the same batch of GA used for immunization. GAPDH and β-actin were used as reference genes.
(§2) Each of the three groups consisted of four female CSJLF1/JRj (Janvier Labs) mice, approximately 8-12 weeks of age. On Day 0, mice were immunized by injection of 0.1 mL injection volume into four footpads (about 10 μL into each of the front footpad, 40 μL into each of the hind footpad). The immunization contained a total dose of 250 μg of one lot of GA (Copaxone batch P53974)+CFA (0.5 mg/mL). On Day 10 post-immunization, lymph cells were isolated from animals and stimulated with enriched DCCM-1 (mock-stimulated vehicle control), 2.5 μg/mL Concanavalin A (ConA, a positive control) or GA.
(§3) Ten days following immunization, LN cell samples isolated from the immunized mice each were stimulated with 0.3, 1, 2.5, 5, 10, or 20 μg/mL of Copaxone batch P53974 as shown in Table 43.
(§4) Total RNA was isolated from stimulated LN cells after 6 hours of incubation at about 37° C. in a humidified CO2 incubator, using the SV 96 Total RNA Isolation System according to the manufacturer's protocol (Promega, Cat. #Z3500). cDNA was synthesized from each RNA sample in triplicate using High Capacity cDNA Reverse Transcription Kit (Life Technologies, formerly Applied Biosystems) according to the manufacturer's protocol.
(§5) Samples were prepared using TaqMan Universal PCR Master Mix II (Life Technologies) and run in 96-well plates using a Real-Time PCR system (7500, Life Technologies) using the following program for Real-Time PCR:
(§6) The levels of cytokine mRNA were calculated using a standard ΔΔCT method as described previously.

[1] = test system: mouse CD25 (IL-2ra) mRNA in primary LN cells; assay: Mouse CD25 mRNA in LN cells of Copaxone P53974-immunized CSJLF1/JRj mice stimulated with GA lots (Example VIII); assay type: cell-based; conditions: stimulation conc. 2.5 μg/mL, relative to DCCM1 medium control
Procedure: [The procedure below names another target; the source lists this target under the same test.] (§7) A real-time polymerase chain reaction method was used to measure the expression of IL-2, IL-4, IL-5, and IL-13 mRNA in LN cells, from GA-immunized mice, following stimulation with one of twelve GA lots. One lot of GA (Copaxone P53974) was used for immunization. […] Twenty female CSJLF1/JRj mice (Janvier Labs), approximately 8-12 weeks of age, were immunized by injection of 0.1 mL injection volume into four footpads (about 10 μL into each of the front footpad, 40 μL into each of the hind footpad) on Day 0. […] Samples were prepared using TaqMan Universal PCR Master Mix II (Life Technologies) and run in 96-well plates using a Real-Time PCR system (7500, Life Technologies) using the following RT-PCR program: The levels of cytokine mRNA were calculated using a standard ΔΔCT method as described previously.

mIL-13 mRNA in LN cells = mIL-13 mRNA in LN cells of Copaxone P53974-immunized CSJLF1/JRj mice, three identical experiments (Example VII); assay type: cell-based, mouse; conditions: 2.5 μg/mL, 6 hours
Procedure: as §1, §2, §3, §4, §5, §6

mIL-4 mRNA in LN cells = mIL-4 mRNA in LN cells of Copaxone P53974-immunized CSJLF1/JRj mice, three identical experiments (Example VII); assay type: cell-based, mouse; conditions: 2.5 μg/mL, 6 hours
Procedure: as §1, §2, §3, §4, §5, §6

[2] = test system: mouse IL-17 mRNA in primary LN cells; assay: Mouse IL-17 mRNA in LN cells of Copaxone P53974-immunized CSJLF1/JRj mice stimulated with GA lots (Example VIII); assay type: cell-based; conditions: stimulation conc. 2.5 μg/mL; for IL-17 mRNA/B-Actin Fold Change: normalized to B-Actin; for IL-17 mRNA/GAPDH Fold Change: normalized to GAPDH
Procedure: [The procedure below names another target; the source lists this target under the same test.] as §7

mIL-5 mRNA in LN cells = mIL-5 mRNA in LN cells of Copaxone P53974-immunized CSJLF1/JRj mice, three identical experiments (Example VII); assay type: cell-based, mouse; conditions: 2.5 μg/mL, 6 hours
Procedure: as §1, §2, §3, §4, §5, §6

[3] = test system: mouse IL-5 mRNA in primary LN cells; assay: Mouse IL-5 mRNA in LN cells of Copaxone P53974-immunized CSJLF1/JRj mice stimulated with twelve GA lots (Example VIII); assay type: cell-based; conditions: stimulation conc. 2.5 μg/mL; for IL-5 mRNA/GAPDH Fold Change: normalized to GAPDH
Procedure: as §7

[4] = test system: mouse IL-13 mRNA in primary LN cells; assay: Mouse IL-13 mRNA in LN cells of Copaxone P53974-immunized CSJLF1/JRj mice stimulated with twelve GA lots (Example VIII); assay type: cell-based; conditions: stimulation conc. 2.5 μg/mL; normalized to B-Actin
Procedure: as §7

[5] = test system: mouse IL-2 mRNA in primary LN cells; assay: Mouse IL-2 mRNA in LN cells of Copaxone P53974-immunized CSJLF1/JRj mice stimulated with twelve GA lots (Example VIII); assay type: cell-based
Procedure: as §7

secreted IL-2 = assay: Secreted IL-2 from treated LN cells (other experiments, data not shown); assay type: cell-based, mouse; conditions: increasing concentrations
Source text: This dose-dependent response was consistent for both test and reference compounds independent of whether Copaxone® or Mylan GMA was used as the immunizing antigen.

[6] = relative to DCCM1 medium control
[7] = Plate 1, positive control 2.5 μg/mL listed in the C1 section
[8] = Plate 1, positive control 2.5 μg/mL listed in the C2 section
[9] = Plate 1, positive control 2.5 μg/mL listed in the C3 section

## Concanavalin A [ConA, reference compound]
mIL-2 mRNA in LN cells; Group 1
  IL-2 mRNA/Actβ Fold Change: 157.7 fold
  IL-2 mRNA/GAPDH Fold Change: 102.9 fold
mIL-2 mRNA in LN cells; Group 2
  IL-2 mRNA/Actβ Fold Change: 137.4 fold
  IL-2 mRNA/GAPDH Fold Change: 122.2 fold
mIL-2 mRNA in LN cells; Group 3
  IL-2 mRNA/Actβ Fold Change: 91.7 fold
  IL-2 mRNA/GAPDH Fold Change: 55.8 fold
[1]; normalized to B-Actin
  CD25 mRNA/B-Actin Fold Change: 4.1 and 5.6 and 4.7 and 5.2 and 5.0 and 5.1
[1]; normalized to GAPDH
  CD25 mRNA/GAPDH Fold Change: 3.6 and 4.4 and 4.5 and 5.6 and 4.8 and 4.6 and 4.7
mIL-13 mRNA in LN cells; Group 1
  IL-13 mRNA/Actβ Fold Change: 33.3 fold
  IL-13 mRNA/GAPDH Fold Change: 24.1 fold
mIL-13 mRNA in LN cells; Group 2
  IL-13 mRNA/Actβ Fold Change: 28.4 fold
  IL-13 mRNA/GAPDH Fold Change: 23.8 fold
mIL-13 mRNA in LN cells; Group 3
  IL-13 mRNA/Actβ Fold Change: 25.7 fold
  IL-13 mRNA/GAPDH Fold Change: 17.8 fold
mIL-4 mRNA in LN cells; Group 1
  IL-4 mRNA/Actβ Fold Change: 54.5 fold
  IL-4 mRNA/GAPDH Fold Change: 35.6 fold
mIL-4 mRNA in LN cells; Group 2
  IL-4 mRNA/Actβ Fold Change: 38.5 fold
  IL-4 mRNA/GAPDH Fold Change: 34.2 fold
mIL-4 mRNA in LN cells; Group 3
  IL-4 mRNA/Actβ Fold Change: 35.7 fold
  IL-4 mRNA/GAPDH Fold Change: 21.8 fold
[2]
  IL-17 mRNA/B-Actin Fold Change: 133.2 fold and 224.2 fold and 128.3 fold and 204.1 fold
  IL-17 mRNA/GAPDH Fold Change: 125.8 fold and 208.6 fold and 139.9 fold and 213.0 fold
[2]; [6]
  IL-17 mRNA/B-Actin Fold Change: 67.2 and 83.0 and 70.9 and 64.8
  IL-17 mRNA/GAPDH Fold Change: 102.6 and 104.0 and 78.8 and 83.6
mIL-5 mRNA in LN cells; Group 1
  IL-5 mRNA/Actβ Fold Change: 16.6 fold
  IL-5 mRNA/GAPDH Fold Change: 12.0 fold
mIL-5 mRNA in LN cells; Group 2
  IL-5 mRNA/Actβ Fold Change: 25.4 fold
  IL-5 mRNA/GAPDH Fold Change: 21.4 fold
mIL-5 mRNA in LN cells; Group 3
  IL-5 mRNA/Actβ Fold Change: 12.4 fold
  IL-5 mRNA/GAPDH Fold Change: 8.6 fold
[3]; normalized to B-Actin
  IL-5 mRNA/B-Actin Fold Change: 23.6 fold and 20.9 fold and 21.3 fold and 21.4 fold
[3]
  IL-5 mRNA/GAPDH Fold Change: 23.6 fold and 20.0 fold and 20.6 fold and 22.3 fold
[3]; ΔΔCT
  IL-5 mRNA/GAPDH Fold Change: 25.7 fold and 32.7 fold and 22.2 fold and 20.8 fold and 26.0 fold and 25.2 fold and 30.3 fold and 29.3 fold
[4]
  IL-13 mRNA/B-Actin Fold Change: 29.3 fold
[5]; [7]
  IL-2 mRNA/B-Actin Fold Change: 118.1 fold
  IL-2 mRNA/GAPDH Fold Change: 116.9 fold
[5]; [8]
  IL-2 mRNA/B-Actin Fold Change: 111.2 fold
  IL-2 mRNA/GAPDH Fold Change: 103.7 fold
[5]; [9]
  IL-2 mRNA/B-Actin Fold Change: 105.2 fold
  IL-2 mRNA/GAPDH Fold Change: 87.6 fold
[5]; stimulation conc. 2.5 μg/mL, normalized to B-Actin
  IL-2 mRNA/B-Actin Fold Change: 109.3 fold and 120.1 fold and 75.2 fold and 81.3 fold and 103.6 fold and 101.9 fold and 92.2 fold and 98.9 fold
[5]; stimulation conc. 2.5 μg/mL, normalized to B-Actin, ΔΔCT
  IL-2 mRNA/B-Actin Fold Change: 106.7 fold and 96.2 fold and 103.1 fold and 120.5 fold and 121.8 fold
[5]; stimulation conc. 2.5 μg/mL, normalized to GAPDH
  IL-2 mRNA/GAPDH Fold Change: 103.2 fold and 111.7 fold and 82.0 fold and 84.8 fold and 158.0 fold and 127.7 fold and 102.6 fold and 127.5 fold
[5]; stimulation conc. 2.5 μg/mL, normalized to GAPDH, ΔΔCT
  IL-2 mRNA/GAPDH Fold Change: 100.3 fold and 92.7 fold and 99.8 fold and 147.4 fold and 131.3 fold

## L-glutamic acid polymer with L-alanine, L-lysine and L-tyrosine, acetate (salt) [GA]
Secreted IL-2
  secreted IL-2 from treated cells: increased in dose-dependent fashion
